Source: paper PMC11420878, “Labeling of CC Chemokine Receptor 2 with a Versatile Intracellular Allosteric Probe” (ACS Chemical Biology, 2024)

Key:
Assay type in all cases: binding
[1] = target: T1, CC chemokine receptor 2 (CCR2) (Homo sapiens, UniProt P41597); assay: [3H]CCR2-RA-[R] displacement (Ki shift), in-gel fluorescence labeling, pull-down proteomics; design: CCR2 stably expressed in U2OS membranes; HA-CCR2 in HEK293T membranes
[2] = target: T1, CC chemokine receptor 2 (CCR2); assay: [3H]CCR2-RA-[R] displacement, […] h preincubation; design: CCR2 stably expressed in U2OS membranes
[3] = target: T1, CC chemokine receptor 2 (CCR2); assay: [3H]CCR2-RA-[R] displacement, […] h preincubation; in-gel fluorescence labeling; design: CCR2 stably expressed in U2OS membranes; HA-CCR2 in HEK293T membranes

T1 sequence (P41597 whole entry): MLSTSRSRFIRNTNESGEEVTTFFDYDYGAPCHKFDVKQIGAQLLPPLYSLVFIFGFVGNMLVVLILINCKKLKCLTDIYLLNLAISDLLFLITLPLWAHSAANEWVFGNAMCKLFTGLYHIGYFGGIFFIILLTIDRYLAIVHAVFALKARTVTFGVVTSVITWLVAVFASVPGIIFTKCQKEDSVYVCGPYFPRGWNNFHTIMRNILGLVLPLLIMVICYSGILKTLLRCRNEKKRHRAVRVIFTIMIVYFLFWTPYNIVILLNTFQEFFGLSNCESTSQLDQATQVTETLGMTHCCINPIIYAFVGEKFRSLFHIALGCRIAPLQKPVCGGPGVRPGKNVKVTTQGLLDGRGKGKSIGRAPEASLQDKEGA

| Structure (SMILES) | Ki [2] [nM] | Ki [3] [nM] | other results |
| --- | --- | --- | --- |
| C#CCOCCOCCOc1cc(NC(=O)C=C)ccc1Oc1ccc(Cl)cc1NS(=O)(=O)c1ccc(Cl)c(C(F)(F)F)c1 [6c, probe 6c] |  |  | Ki [1]: ~0.5 nM |
| C#CCOCCOc1cc(NC(=O)C=C)ccc1Oc1ccc(Cl)cc1NS(=O)(=O)c1ccc(Cl)c(C(F)(F)F)c1 [6b] |  | ~0.5 |  |
| C#CCOc1cc(NC(=O)C=C)ccc1Oc1ccc(Cl)cc1NS(=O)(=O)c1ccc(Cl)c(C(F)(F)F)c1 [6a] |  | ~0.5 |  |

More lines, main results first:

| Ki [2] [nM] | Ki [3] [nM] | Structure (SMILES) | other results |
| --- | --- | --- | --- |
| ~1.3 |  | C#CCOCCOCCOc1cc(NC(=O)CCSC#N)ccc1Oc1ccc(Cl)cc1NS(=O)(=O)c1ccc(Cl)c(C(F)(F)F)c1 [8c] |  |
| ~1.3 |  | C#CCOc1cc(NC(=O)CCSC#N)ccc1Oc1ccc(Cl)cc1NS(=O)(=O)c1ccc(Cl)c(C(F)(F)F)c1 [8a] |  |
| ~1.3 |  | C#CCOCCOc1cc(NC(=O)CCSC#N)ccc1Oc1ccc(Cl)cc1NS(=O)(=O)c1ccc(Cl)c(C(F)(F)F)c1 [8b] |  |
